Patent publication US9457015B2, “2-aminothiazole derivative and anti-cancer composition comprising same as active ingredient” (Chung-Ang University Industry-Academic Cooperation …, priority 2012, dated 2016)

Columns and labels:
[1] = system: lung cancer cells (A549); assay: Cytotoxicity by MTT analysis, A549; format: cell-based
Procedure: (§1) Toxicity to cells was analyzed using 3-[4,5-dimethylthiazol-2-yl]-2,5-diphenyl-tetra zolium bromide (MTT) analysis. As cancer cells to be measured, 8.0×10^3 cells/mL was aliquoted on a 96-well culture dish and then the cells were cultured for 24 hours. The next day, the synthesized compound was dissolved in a medium according to each concentration, and diluted in a medium according to each concentration. The medium in which the compound was dissolved according to each concentration was added to a culture dish at […], dimethyl sulfoxide (DMSO) was added to a control well so as to have the same volume as the added compound. After the addition, the cells were cultured in an incubator in 5% CO2 at 37° C., and then survival capability of cells was measured at 24 hours and 48 hours after the culture. After the medium was removed, the cells were washed twice using PBS, then 200 μL of a solution containing 1 mg/mL of MTT (Sigma-Aldrich Chemical Co., USA) was added thereto, and then the cells were further cultured for 3 hours in a CO2 incubator at 37° C. The 96-well culture dish was centrifuged for 10 minutes at 2000 rpm to remove the MTT solution. […] The solution was added to the 96-well culture dish, and then absorbance was measured at 540 nm. Relative absorbance was calculated using absorbance according to concentration of drugs divided by absorbance of a control group (drug-untreated group).

[2] = system: prostate cancer cell line, PC3; assay: Cytotoxicity by MTT analysis, PC3; format: cell-based; conditions: PC3 prostate cancer cells
Procedure: The prostate cancer cell line, PC3 was obtained from Korean Cell Line Bank. After adding Rosewell Park Memorial Institute (RPMI) 1640 cell culture medium (LM001-01, WelGEN) containing 10% fetal bovine serum (FBS), 100 units/mL of penicillin and 100 μg/mL of streptomycin to a 100 Φ dish, cells were inoculated on the dish and cultured in a CO2 incubator (VS-9000C, vision) in 5% CO2/95% humidified air atmosphere at 37° C.
Toxicity to cells was analyzed using 3-[4,5-dimethylthiazol-2-yl]-2,5-diphenyl-tetra zolium bromide (MTT) analysis. As cancer cells to be measured, 8.0×10^3 cells/mL was aliquoted on a 96-well culture dish and then the cells were cultured for 24 hours. The next day, the synthesized compound was dissolved in a medium according to each concentration, and diluted in a medium according to each concentration. […] After the addition, the cells were cultured in an incubator in 5% CO2 at 37° C., and then survival capability of cells was measured at 24 hours and 48 hours after the culture. […] The solution was added to the 96-well culture dish, and then absorbance was measured at 540 nm. Relative absorbance was calculated using absorbance according to concentration of drugs divided by absorbance of a control group (drug-untreated group).

[3] = system: ovarian cancer cells (SK-OV-3); assay: Cytotoxicity by MTT analysis, SK-OV-3; format: cell-based; conditions: Homo sapiens, SK-OV-3, MTT analysis, read-out: IC50 (nM) SK-OV3 Ovarian cancer
Procedure: as §1

[4] = system: breast cancer cells (MCF7); assay: Cytotoxicity by MTT analysis, MCF7; format: cell-based; conditions: Homo sapiens
Procedure: as §1

[5] = system: colorectal cancer cells (HCT15); assay: Cytotoxicity by MTT analysis, HCT15; format: cell-based
Procedure: as §1

[6] = system: skin cancer cells (SK-MEL2); assay: Cytotoxicity by MTT analysis, SK-MEL2; format: cell-based
Procedure: as §1

[7] = system: prostate cancer cell line, PC3, transplanted; assay: Anti-cancer effect in vivo in mice with transplanted PC3 tumors; conditions: 2 mg/kg/day i.v. for four consecutive days, compared 7 days after stoppage
Procedure: The anti-cancer activity of the compound according to the present invention, HF-154 was measured in in-vivo using mice in which a prostate cancer cell line, PC3, was transplanted. An experimental group included a group of two mice to which an excipient (vehicle) was administered and a group of four mice to which the compound according to the present invention, HF-154, was administered. The compound according to the present invention, HF-154, was administered to each mouse in an amount of 2 mg/kg/day (100 μL i.v.). First, after administration for four consecutive days, administration was stopped, and tumor growth was compared at 7 days after the stoppage.

O=C(CCc1ccco1)Nc1ncc(-c2ccc(F)cc2)s1 [HF-154, N-(5-(4-fluorophenyl)thiazol-2-yl)-3-(furan-2-yl)propanamide]
IC50 [1]: ~3 nM | IC50 [2]: ~0.1 nM | IC50 [3]: ~0.5 nM | IC50 [4]: ~0.3 nM | IC50 ([5]; Homo sapiens, HCT-15, MTT analysis): 1 to 5 nM | IC50 ([5]; MTT analysis): ~1 nM | IC50 [6]: ~5 nM | size of the tumor compared to the excipient administration group [7]: significantly reduced
